In assay [1] the test system is E. coli KY895 harboring pMCC (wild-type HSV-1 TK). Nature of the assay: Colony formation on acyclovir or AZT plates (secondary screen). The class given is cell-based. Also on record: key: (++) indicates that the same number of colonies were observed as compared to control plates; (+) indicates that fewer (<20% those observed with pMCC) and generally smaller (~50°,% smaller diameter) colonies were observed as compared to control plates; (-) indicates that no colonies were observed. The note with it: TK selection plates, 1 µg/mL thymidine + 1µg/mL acyclovir or 0.05 µg/mL AZT, 37°C, 16-24 hours. The protocol:
(§1) […]. Mutant cultures were also spread onto duplicate TK selection and LB + carb^50 plates. One set of TK selection plates and LB + carb^50 plates were incubated at 42°C. All other plates were incubated at 37°C. After 16-24 hours the plates were scored.

Assay [2] concerns E. coli KY895 harboring HSV-1 TK mutant F161C. The description is as above. The class given is cell-based. Also on record: key: (++) indicates that the same number of colonies were observed as compared to control plates; (+) indicates that fewer (<20% those observed with pMCC) and generally smaller (~50°,% smaller diameter) colonies were observed as compared to control plates; (-) indicates that no colonies were observed. The note with it: TK selection plates, 1 µg/mL thymidine + 1µg/mL acyclovir or 0.05 µg/mL AZT, 37°C, 16-24 hours. On the procedure:
as §1

The test system of assay [3] is E. coli KY895 harboring HSV-1 TK mutant F161L. Described as above. Format: cell-based. Details: key: (++) indicates that the same number of colonies were observed as compared to control plates; (+) indicates that fewer (<20% those observed with pMCC) and generally smaller (~50°,% smaller diameter) colonies were observed as compared to control plates; (-) indicates that no colonies were observed. The note with it: TK selection plates, 1 µg/mL thymidine + 1µg/mL acyclovir or 0.05 µg/mL AZT, 37°C, 16-24 hours. On the procedure:
as §1

Assay [4] has as its system E. coli KY895 harboring HSV-1 TK mutant P155A/F161V. The description is as above. The class given is cell-based. To be noted: TK selection plates, 1 µg/mL thymidine + 1µg/mL acyclovir or 0.05 µg/mL AZT, 37°C, 16-24 hours. Also on record: key: (++) indicates that the same number of colonies were observed as compared to control plates; (+) indicates that fewer (<20% those observed with pMCC) and generally smaller (~50°,% smaller diameter) colonies were observed as compared to control plates; (-) indicates that no colonies were observed. On the procedure: as §1

The test system of assay [5] is E. coli KY895 harboring HSV-1 TK mutant F1611/R163H. The assay is described as above. Format: cell-based. Also on record: key: (++) indicates that the same number of colonies were observed as compared to control plates; (+) indicates that fewer (<20% those observed with pMCC) and generally smaller (~50°,% smaller diameter) colonies were observed as compared to control plates; (-) indicates that no colonies were observed. To be noted: TK selection plates, 1 µg/mL thymidine + 1µg/mL acyclovir or 0.05 µg/mL AZT, 37°C, 16-24 hours. On the procedure: as §1

For assay [6], the target named is HSV-1 thymidine kinase mutant TKI 208 (Leu-170 to Val), SEQ ID 23 (codons 165-175) (Human herpesvirus 1, UniProt P06478, L170V). The class given is biochemical, Herpes Simplex Virus Type 1. To be noted: Table I; purified enzyme, 34°C, 10 minutes. The protocol:
(§2) Purification of wild-type and mutant TKs was performed by affinity chromatography on CH-Sepharose 4B (Pharmacia) coupled to p-aminophenylthymidine 3'-phosphate. Briefly, crude bacterial extract was passed three times through a 7-mL bed-volume affinity column. The column was then washed sequentially using 30 mL each of buffer A [0.1 M Tris HCl, pH 7.5/5 mM dithiothreitol (DTT)/10% glycerol], buffer B (0.1M Tris-HCl, pH 7.5/0.5 M KCl/5 mM DTT/10% glycerol), and buffer A. TK was eluted using a 60-mL linear gradient of 0-600 µM dT in buffer C (0.3 M Tris HCl, pH 7.4/50 mM KCl/10% glycerol). Active fractions were pooled and dialyzed against three changes each of 2 liters of 50 mM Tris-HCl, pH 7.4/5 mM DTT/10% glycerol. Except in the final dialysis, all the above buffers contained 50 µg/mL of aprotinin and 2 µg/mL each of pepstatin and leupeptin.
(§3) Secondly, the kinetics of AZT phosphorylation by the two mutants was determined. […] (One unit of enzyme is defined as that amount that can phosphorylate 1.0 pmol of dT to TMP in 1 minute under the conditions described above.) Incubation was at 34°C ± 1°C for 10 minutes, and reactions were stopped by adding 1.0 mM unlabeled dT and cooling on ice. Half of the reaction mixtures were pipetted onto a DEAE-cellulose disc (25 mm), dipped in distilled water (1 minute), followed by four washes in absolute ethanol. The amount of radioactivity adsorbed to the disc was determined by scintillation spectroscopy. […] All other components in the reaction mixtures and the incubation conditions were as described above for phosphorylation of AZT.
(§4) All buffers used in the purification of TK contained 5mM DTT, 50 µ/mL aprotinin, 2 µg/mL each of leupeptin and pepstatin and I mM PMSF unless otherwise indicated. […] TK assay was performed on all the fractions and peak TK - fractions were pooled and dialyzed against three changes of 21 of dialysis buffer (50 mM Tris-HCl, pH 7.4, 5 mM DTT, 10% glycerol). In the final dialysis, protease inhibitors were omitted from the buffer and the dialyzed fractions were aliquoted and stored at -70°C. The column was washed thoroughly twice by using the same washing and elution protocols as described above prior to application of each extract preparation.
(§5) Kinetic parameters were determined essentially as described below. […] Incubation was at 34 ± 1°C for 10 minutes. […] Half of the reaction mix was pipetted onto a DEAE-cellulose disc (25 mm) and the disc was dipped in distilled water (1 minute) followed by four washes each in 10 mL of absolute ethanol. The adsorbed products on the disc were counted in a scintillation counter.

Assay [7] has as its target HSV-1 thymidine kinase, wild-type (pMCC), SEQ ID 13 (codons 165-175) (Human herpesvirus 1, UniProt P06478). Format: biochemical, Herpes Simplex Virus Type 1. To be noted: Table I; purified enzyme, 34°C, 10 minutes. The protocol:
as §2, §3, §4, §5

Assay [8] concerns E. coli KY895 harboring HSV-1 TK mutant F1611. Nature of the assay: Colony formation on acyclovir or AZT plates (secondary screen). The class given is cell-based. To be noted: TK selection plates, 1 µg/mL thymidine + 1µg/mL acyclovir or 0.05 µg/mL AZT, 37°C, 16-24 hours. The protocol:
as §1

In assay [9] the test system is E. coli KY895 harboring HSV-1 TK mutant R163P/H164Q. Described as above. The class given is cell-based. The note with it: TK selection plates, 1 µg/mL thymidine + 1µg/mL acyclovir or 0.05 µg/mL AZT, 37°C, 16-24 hours. The protocol:
as §1

Structures are written as SMILES. Where “and” joins values, the source holds several entries; their conditions need not be identical. Equal values may be shown once.

Chain of HSV-1 thymidine kinase, wild-type (pMCC), SEQ ID 13 (codons 165-175) (P06478 whole entry, looked up): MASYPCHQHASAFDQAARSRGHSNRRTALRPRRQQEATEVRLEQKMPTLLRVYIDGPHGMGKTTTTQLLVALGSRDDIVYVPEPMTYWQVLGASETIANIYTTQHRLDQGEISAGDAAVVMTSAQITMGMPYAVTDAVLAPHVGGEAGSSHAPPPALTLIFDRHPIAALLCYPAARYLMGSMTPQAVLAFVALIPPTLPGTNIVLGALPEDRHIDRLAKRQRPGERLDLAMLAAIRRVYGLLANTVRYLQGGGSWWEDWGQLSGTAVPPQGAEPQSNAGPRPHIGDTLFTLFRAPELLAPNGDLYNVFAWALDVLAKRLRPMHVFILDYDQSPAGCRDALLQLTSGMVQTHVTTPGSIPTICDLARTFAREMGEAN
Chain of HSV-1 thymidine kinase mutant TKI 208 (Leu-170 to Val), SEQ ID 23 (codons 165-175) (P06478 whole entry L170V, looked up): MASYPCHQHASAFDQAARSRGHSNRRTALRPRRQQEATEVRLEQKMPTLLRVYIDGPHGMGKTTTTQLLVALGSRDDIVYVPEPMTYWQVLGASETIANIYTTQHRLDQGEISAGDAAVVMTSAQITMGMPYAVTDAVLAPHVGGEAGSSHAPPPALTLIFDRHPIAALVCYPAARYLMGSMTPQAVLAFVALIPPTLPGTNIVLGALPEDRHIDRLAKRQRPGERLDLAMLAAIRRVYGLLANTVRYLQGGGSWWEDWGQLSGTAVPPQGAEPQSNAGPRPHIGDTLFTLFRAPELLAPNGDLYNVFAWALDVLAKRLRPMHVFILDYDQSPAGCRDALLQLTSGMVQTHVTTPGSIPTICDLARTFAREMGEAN

For `Cc1cn([C@H]2C[C@H](N=[N+]=[N-])[C@@H](CO)O2)c(=O)[nH]c1=O` [AZT, 3' azido-3' thymidine], the “colony formation on nucleoside analogue plates” value was “++” in [1]; “-” in [2]; “++” in assay [3]; “+ ((+) indicates that fewer (<20% those observed with pMCC) and generally smaller (~50°,% smaller diameter) colonies were observed as compared to control plates)” in [4]; “++” in [5]; “+ ((+) indicates that fewer (<20% those observed with pMCC) and generally smaller (~50°,% smaller diameter) colonies were observed as compared to control plates)” in assay [8]. Moreover, the “colony formation on nucleoside analogue plates” value in [9] was “+ ((+) indicates that fewer (<20% those observed with pMCC) and generally smaller (~50°,% smaller diameter) colonies were observed as compared to control plates)”. The Km in assay [6] was 4.4 µM; in [7], 8.5 µM and 8.46 µM. Also, the kcat in assay [6] came out at 0.03 s⁻¹; in assay [7] it was 0.036 s⁻¹.

`Nc1nc2c(ncn2COCCO)c(=O)[nH]1` [acyclovir]: the “colony formation on nucleoside analogue plates” value in assay [1] was “++”; in [2] it was “+ ((+) indicates that fewer (<20% those observed with pMCC) and generally smaller (~50°,% smaller diameter) colonies were observed as compared to control plates)”; in [3], “++”; in [4], “++”; in assay [5], “++”; in assay [8], “+ ((+) indicates that fewer (<20% those observed with pMCC) and generally smaller (~50°,% smaller diameter) colonies were observed as compared to control plates)”. Also, the “colony formation on nucleoside analogue plates” value in assay [9] was “+ ((+) indicates that fewer (<20% those observed with pMCC) and generally smaller (~50°,% smaller diameter) colonies were observed as compared to control plates)”.

As usually defined, the Km is the concentration of substrate that gives half-maximal velocity. Usually kcat stands for the number of substrate molecules converted per active site and unit of time at saturation.
